Reference: patent US20110118304A1, “METHOD FOR TREATING OVER-EATING DISORDERS” (NeuroSearch A/S, priority 2007, published 2011)

Test system: Diet-Induced Obese Rats
Test: Effect of tesofensine on food-intake in diet-induced obese rats
Format: in vivo, male Sprague-Dawley rats
Details: single subcutaneous injection of 1,5 mg/kg at lights out; diet-induced obese rats on high-fat diet; versus vehicle (saline); FIG. 1
Protocol: These rats were from 3-5 weeks of age only given access to a high-fat diet (#12266B; 31.8% kcal from fat, energy density […], Research Diets, New Jersey). After 17 weeks on high-fat diet, animals were stratified according to body weight. Tesofensine was injected in different doses to male Sprague-Dawley rats. Vehicle (saline), or tesofensine at different doses (from 0,5 mg/kg to 2,0 mg/kg) was administered as a single subcutaneous injection at lights out. The level of food-intake was continuously determined over the next 18 hours in an automated food-delivering system.
In FIG. 1, the level of food-intake over night is illustrated of two groups of animals; receiving either a single dose of 1,5 mg/kg tesofensine (triangles) or vehicle (squares).
In FIG. 2, a relation between increasing doses of tesofensine and the accumulated food-intake over a 18 h observation is shown.

With `CCOC[C@@H]1[C@@H](c2ccc(Cl)c(Cl)c2)C[C@@H]2CC[C@H]1N2C` [tesofensine, (1R,2R,3S,5S)-3-(3,4-dichlorophenyl)-2-(ethoxymethyl)-8-methyl-8-azabicyclo[3.2.1]octane] the “level of food-intake over night” value was “inhibits food intake over night”.
